The subject of one test is HepG2. The test is described as follows: Cytotoxicity against human HepG2 cells. It is filed as functional, cell-based.
The subject of another test is MCF7. Nature of the test: Cytotoxicity against human MCF7 cells. It is filed as functional, cell-based.
The nature of test [1]: Cytotoxicity against human Lu cells. It is filed as functional, cell-based.
The subject of another test is KB. Nature of the test: Cytotoxicity against human KB cells. The test is classed as functional, cell-based.
Another test has as its system Bacillus subtilis. Nature of the test: Antibacterial activity against Bacillus subtilis. It is filed as functional, organism-based.
A further test concerns Staphylococcus aureus. Nature of the test: Antibacterial activity against Staphylococcus aureus. It is filed as functional, organism-based.
For another test, the system named is Escherichia coli. The test is described as follows: Antibacterial activity against Escherichia coli. It is filed as functional, organism-based.
In a further test the test system is Pseudomonas aeruginosa. Nature of the test: Antibacterial activity against Pseudomonas aeruginosa. It is filed as functional, organism-based.
The next test deals with Candida albicans. Nature of the test: Antifungal activity against Candida albicans. The test is classed as functional, organism-based.

Activity calls are given as the source filed them. No cut-off for these calls is given here.

Usually IC50 stands for the midpoint of a concentration-inhibition curve. Low readings indicate greater potency in that assay, high ones weaker potency in that assay.

For `Cc1c2ccncc2c(C)c2c1[nH]c1ccccc12` [ELLIPTECINE], the IC50 is 1.3 µM with HepG2, 1.8 µM in the test with MCF7 and 2.2 µM in test [1].
For the compound `CC(C)C1CC2=C(CO1)C(=O)c1ccccc1C2=O` (centres undefined), the IC50 was 17.5 µM in the test with KB, 19.8 µM in the test on HepG2, 26.2 µM in the test on MCF7 and greater than 39 µM in test [1]. For the same compound, the result with Bacillus subtilis, in the test with Staphylococcus aureus, in the test on Escherichia coli, in the test on Pseudomonas aeruginosa and in the test on Candida albicans was inactive.
On to `CC1=C[C@@]23O[C@]2(CO1)C(=O)c1ccccc1C3=O`, for which the 50% inhibitory concentration (IC50) (in the test on KB; with HepG2; with MCF7; in test [1]) was greater than 41.3 µM throughout. The outcome in the test with Bacillus subtilis, in the test on Staphylococcus aureus, in the test with Escherichia coli, in the test with Pseudomonas aeruginosa and with Candida albicans was inactive.
As to `CC(C)C1C[C@@]23O[C@]2(CO1)C(=O)c1ccccc1C3=O` (some centres undefined), the 50% inhibitory concentration (IC50) (in the test on KB; with HepG2; in the test with MCF7; in [1]) was greater than 32.6 µM each time. In addition, the outcome in the test on Bacillus subtilis, in the test with Staphylococcus aureus, in the test with Escherichia coli, with Pseudomonas aeruginosa and in the test on Candida albicans was inactive.
With `O=C1C2=C(COC(c3ccccc3)=C2)C(=O)c2ccccc21`, the IC50 in the test with KB is 7.5 µM; with HepG2 it was 12.2 µM; in the test with MCF7 it was greater than 34.7 µM; in test [1], greater than 34.7 µM. In addition, the outcome in the test on Bacillus subtilis, in the test on Staphylococcus aureus, in the test on Escherichia coli, with Pseudomonas aeruginosa and in the test on Candida albicans was inactive.
As to `O=C1c2ccccc2C(=O)[C@]23COC(c4ccc(F)cc4)=C[C@]12O3`, the IC50 (in the test with KB; with HepG2; with MCF7; in [1]) was greater than 31 µM throughout. In addition, the outcome in the test on Bacillus subtilis, in the test on Staphylococcus aureus, in the test with Escherichia coli, in the test with Pseudomonas aeruginosa and in the test with Candida albicans was inactive.
In the case of `CC1C[C@@]23O[C@]2(CO1)C(=O)c1ccccc1C3=O` (some centres undefined), the IC50 (with KB; in the test with HepG2; in the test with MCF7; in test [1]) was greater than 41 µM in each case. Besides, the outcome in the test with Bacillus subtilis, in the test on Staphylococcus aureus, in the test on Escherichia coli, with Pseudomonas aeruginosa and with Candida albicans was inactive.
On to `O=C1c2ccccc2C(=O)[C@]23COC(c4ccccc4)=C[C@]12O3`, for which the IC50 (in the test on KB; in the test with HepG2; with MCF7; in test [1]) was greater than 32.9 µM in each case. The outcome with Bacillus subtilis, with Staphylococcus aureus, in the test on Escherichia coli, in the test on Pseudomonas aeruginosa and with Candida albicans was inactive.
As to `CC(C)C1=CC2=C(CO1)C(=O)c1ccccc1C2=O`, the half-inhibitory concentration (IC50) in the test on KB worked out at 4.1 µM; with HepG2 it was 10.7 µM; with MCF7 it was 6.7 µM; in [1], 14.9 µM. The outcome in the test on Bacillus subtilis, with Escherichia coli, in the test on Pseudomonas aeruginosa and in the test on Candida albicans was inactive. In addition, the result in the test with Staphylococcus aureus was Active.
Turning to `CC1=CC2=C(CO1)C(=O)c1ccccc1C2=O`, the IC50 worked out at 5.6 µM in the test with KB, 6.7 µM in the test on HepG2, 29.5 µM in the test with MCF7 and 13.1 µM in [1]. Further, the result in the test on Bacillus subtilis, in the test with Escherichia coli, in the test on Pseudomonas aeruginosa and with Candida albicans was inactive. For the same compound, the result in the test on Staphylococcus aureus was Active.
On to `CC1CC2=C(CO1)C(=O)c1ccccc1C2=O` (centres undefined), for which the IC50 in the test with KB amounted to 25.3 µM; in the test with HepG2, 22.5 µM; with MCF7, 22.1 µM; in test [1] it was 23.2 µM. For the same compound, the outcome in the test on Bacillus subtilis, with Staphylococcus aureus, with Escherichia coli, in the test with Pseudomonas aeruginosa and in the test with Candida albicans was inactive.
Consider `O=C1C2=C(CC(c3ccc(F)cc3)OC2)C(=O)c2ccccc21` (centres undefined), for which the concentration for half-maximal inhibition (IC50) was 20.6 µM with KB, 23.4 µM in the test on HepG2, greater than 32.4 µM in the test with MCF7 and 22.1 µM in test [1]. Besides, the outcome in the test on Bacillus subtilis, with Staphylococcus aureus, in the test on Escherichia coli, in the test on Pseudomonas aeruginosa and with Candida albicans was inactive.
Turning to `O=C1c2ccccc2C(=O)[C@]23COC(c4ccc(F)cc4)C[C@]12O3` (some centres undefined), the 50% inhibitory concentration (IC50) (in the test with KB; in the test with HepG2; in the test with MCF7; in [1]) was greater than 30.8 µM in each case. The outcome with Bacillus subtilis, in the test on Staphylococcus aureus, in the test with Escherichia coli, in the test on Pseudomonas aeruginosa and in the test with Candida albicans was inactive.
For `O=C1C2=C(COC(c3ccc(F)cc3)=C2)C(=O)c2ccccc21`, the IC50 amounted to 1.5 µM in the test on KB, 3.6 µM in the test with HepG2, 12.9 µM in the test with MCF7 and 11.5 µM in test [1]. The result with Bacillus subtilis, with Staphylococcus aureus, in the test on Escherichia coli, in the test with Pseudomonas aeruginosa and in the test with Candida albicans was inactive.
On to `O=C1C2=C(CC(c3ccccc3)OC2)C(=O)c2ccccc21` (centres undefined), for which the IC50 in the test with KB was 16.1 µM; in the test with HepG2, 18.7 µM; in the test on MCF7 it was 27.2 µM; in test [1], greater than 34.4 µM. Moreover, the result in the test on Bacillus subtilis, in the test on Staphylococcus aureus, in the test on Escherichia coli, in the test with Pseudomonas aeruginosa and in the test on Candida albicans was inactive.

The values are drawn from ChEMBL document CHEMBL3600281, “Synthesis and anticancer properties of new (dihydro)pyranonaphthoquinones and their epoxy analogs” (Bioorg Med Chem Lett, 2015).
